In one assay the target is CDK2 (human) (UniProt P24941). The assay is described as follows: Enzyme Assay.
The target in a further assay is MAPK14 (human) (UniProt Q16539). The assay is described as follows: Inhibition of MAPK14 Kinase Activity.
In a further assay the target is EGFR (human) (UniProt P00533).

SMILES strings stand for the structures.

Sequence of EGFR (human) (P00533 whole entry, looked up): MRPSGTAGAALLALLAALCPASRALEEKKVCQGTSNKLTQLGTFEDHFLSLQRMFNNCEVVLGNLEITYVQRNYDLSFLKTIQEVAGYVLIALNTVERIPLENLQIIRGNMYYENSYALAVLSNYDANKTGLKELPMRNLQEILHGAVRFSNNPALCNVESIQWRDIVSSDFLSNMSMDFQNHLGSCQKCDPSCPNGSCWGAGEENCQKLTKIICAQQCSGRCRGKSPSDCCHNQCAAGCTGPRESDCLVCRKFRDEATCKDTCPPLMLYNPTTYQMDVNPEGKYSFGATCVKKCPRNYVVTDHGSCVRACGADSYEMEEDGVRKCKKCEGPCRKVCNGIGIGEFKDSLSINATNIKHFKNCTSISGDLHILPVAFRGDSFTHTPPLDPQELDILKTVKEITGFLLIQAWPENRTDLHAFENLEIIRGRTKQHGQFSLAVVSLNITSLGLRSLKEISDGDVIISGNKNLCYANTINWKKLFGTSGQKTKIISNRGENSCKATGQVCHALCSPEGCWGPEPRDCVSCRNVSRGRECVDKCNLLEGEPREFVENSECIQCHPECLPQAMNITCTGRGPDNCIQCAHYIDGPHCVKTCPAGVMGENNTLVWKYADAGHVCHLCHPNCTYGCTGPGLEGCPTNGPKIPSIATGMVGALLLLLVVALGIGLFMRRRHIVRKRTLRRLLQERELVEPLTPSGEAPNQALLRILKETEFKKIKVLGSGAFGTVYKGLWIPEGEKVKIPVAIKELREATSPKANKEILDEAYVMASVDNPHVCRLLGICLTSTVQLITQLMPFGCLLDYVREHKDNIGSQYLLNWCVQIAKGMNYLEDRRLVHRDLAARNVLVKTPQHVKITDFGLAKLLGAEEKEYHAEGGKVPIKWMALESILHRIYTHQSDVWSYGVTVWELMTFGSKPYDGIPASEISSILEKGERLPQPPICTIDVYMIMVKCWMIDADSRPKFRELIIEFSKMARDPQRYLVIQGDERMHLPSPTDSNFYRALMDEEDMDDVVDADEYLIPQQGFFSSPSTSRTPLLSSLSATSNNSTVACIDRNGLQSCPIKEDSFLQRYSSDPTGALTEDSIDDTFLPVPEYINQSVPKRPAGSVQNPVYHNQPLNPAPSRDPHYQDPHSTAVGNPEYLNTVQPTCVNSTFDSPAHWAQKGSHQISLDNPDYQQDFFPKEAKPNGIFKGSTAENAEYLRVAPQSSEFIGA
Sequence of MAPK14 (human) (Q16539 whole entry, looked up): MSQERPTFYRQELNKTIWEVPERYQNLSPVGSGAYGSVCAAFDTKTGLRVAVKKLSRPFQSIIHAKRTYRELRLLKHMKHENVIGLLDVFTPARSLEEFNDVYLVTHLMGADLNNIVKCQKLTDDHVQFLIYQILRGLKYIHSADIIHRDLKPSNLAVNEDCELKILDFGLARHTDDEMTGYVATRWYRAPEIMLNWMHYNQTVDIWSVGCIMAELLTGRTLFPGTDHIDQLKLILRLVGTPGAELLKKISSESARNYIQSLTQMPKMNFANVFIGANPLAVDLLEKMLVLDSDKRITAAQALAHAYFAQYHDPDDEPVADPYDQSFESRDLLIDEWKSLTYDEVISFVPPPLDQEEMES

The compound `OCCOc1ccc(F)c(Cc2c[nH]c3ncc(-c4cccnc4)cc23)c1F` came in with a half-maximal inhibitory concentration (IC50) against CDK2 (human) of at most 10 µM.
In the case of `Nc1cccc(-c2cnc3[nH]cc(C(=O)c4cc(O)ccc4F)c3c2)c1`, the IC50 at MAPK14 (human) and against EGFR (human) was at most 10 µM in each case.
In turn, `O=C(Nc1ccc(F)c(C(O)c2c[nH]c3ncc(-c4cccnc4)cc23)c1F)OCc1ccccc1` (configuration not stated) yielded an IC50 against EGFR (human) of at most 10 µM.
Regarding `CCCS(=O)(=O)Nc1ccc(F)c(C(=O)c2c[nH]c3ncc(OC)cc23)c1F`, the IC50 against MAPK14 (human) and at CDK2 (human) was at most 10 µM each time.
Compound `CCCC(=O)Nc1ccc(F)c(Cc2c[nH]c3ncc(-c4cccnc4)cc23)c1F` yielded an IC50 against CDK2 (human) of at most 10 µM.
On to `O=C(c1cccc(O)c1)c1c[nH]c2ncc(Nc3ccccc3)cc12`, for which the IC50 at MAPK14 (human) and on EGFR (human) was at most 10 µM throughout.
On EGFR (human), `CCCS(=O)(=O)Nc1ccc(F)c(C(=O)c2c[nH]c3ncc(-c4ccc(OC)cc4)cc23)c1F` had an IC50 of at most 10 µM.
As for `CC(=O)Nc1cccc(-c2cnc3[nH]cc(C(=O)c4cc(O)ccc4F)c3c2)c1`, the IC50 on MAPK14 (human) and against EGFR (human) was at most 10 µM in each case.
Regarding `COc1ccc(-c2cnc3[nH]cc(C#Cc4ccccc4)c3c2)cc1OC`, the IC50 against EGFR (human) was at most 10 µM.
On to `CCCS(=O)(=O)Nc1ccc(F)c(C(OC)c2c[nH]c3ncc(OC)cc23)c1F` (configuration not stated), for which the IC50 on CDK2 (human) was at most 10 µM.
`Nc1cccc(-c2cnc3[nH]cc(C(=O)c4cccc(O)c4)c3c2)c1`: the half-inhibitory concentration (IC50) against MAPK14 (human) and at EGFR (human) was at most 10 µM in each case.
Consider `CCCNC(=O)Nc1ccc(F)c(C(=O)c2c[nH]c3ncc(-c4cccnc4)cc23)c1F`, for which, on MAPK14 (human), the half-inhibitory concentration (IC50) is at most 10 µM.
As for `Nc1cccc(-c2cnc3[nH]cc(C(=O)c4cccc(O)c4F)c3c2)c1`, the IC50 against MAPK14 (human) and on EGFR (human) was at most 10 µM throughout.
On MAPK14 (human), `CS(=O)(=O)Nc1ccc(F)c(C(=O)c2c[nH]c3ncc(-c4cccc(S(C)(=O)=O)c4)cc23)c1` yielded an IC50 of at most 10 µM.
On MAPK14 (human), `O=C(c1cccc(O)c1F)c1c[nH]c2ncc(-c3cccnc3)cc12` showed an IC50 of at most 10 µM.
Regarding `Cc1c(O)cccc1C(=O)c1c[nH]c2ncc(-c3cccnc3)cc12`, on MAPK14 (human), the IC50 is at most 10 µM.
The same measure, in the same setting: the result for `CS(=O)(=O)Nc1ccc(Cl)c(C(=O)c2c[nH]c3ncc(-c4cccnc4)cc23)c1F` reads at most 10 µM; that for `O=C(c1cc(O)ccc1F)c1c[nH]c2ncccc12`, at most 10 µM.
Compound `Cc1ccc(F)cc1C(=O)c1c[nH]c2ncc(-c3ccsc3)cc12` showed an IC50 on MAPK14 (human) of at most 10 µM.
The same measure, in the same setting: the result for `c1cc(Nc2ccc3ncsc3c2)c2cc[nH]c2n1` reads at most 10 µM; that for `Cc1c(NS(C)(=O)=O)cccc1C(=O)c1c[nH]c2ncc(-c3ccccc3)cc12`, at most 10 µM.

(Values after the Kinase Knowledgebase extract (Sharma et al. 2016).)
